The text below walks through data of US6103733A, “Method for increasing HDL cholesterol levels using heteroaromatic phenylmethanes” (priority 1998, dated 2000).

For data set [1], the system named is HDL-cholesterol. Description: Serum HDL-cholesterol level after feeding of the compound over 8 days. It is filed as in vivo. Conditions: feeding over 8 days, rats; in words. From the text:
FIG. 2 represents a fold increase of HDL-cholesterol per compound;
We have invented a family of related compounds which cause a significant pharmacological elevation of serum high density lipoprotein (HDL-cholesterol) concentration from 20% to greater than 200%. […] The effect on HDL cholesterol was paralleled by an elevation in the level of apoprotein A1 (a protein component of HDL) and by elevation of apo A1 messenger RNA in treated animals.
The effect of CYP3A inducers on levels of HDL-cholesterol was determined by administration of the compound by feeding over 8 days followed by sacrifice of the animal and determination of HDL-cholesterol levels. The effects of benzylimidazole (IV), clotrimazole, the five high magnitude CYP3A inducers and four compounds showing intermediate CYP3A inducing activity were evaluated. […] The significant linear correlation between the increase in HDL-cholesterol and the increase in ethosuximide clearance is shown in FIG. 3, and supports the belief that the activities are related.

Data set [2] can be described thus: Liver/body weight ratio after administration over several days. It is filed as in vivo. Conditions: rats, indirect sign of increased cytochrome P450 content. The protocol: (§1) A correlation between induction of CYP3A and an increase in serum HDL-cholesterol was supported by our early experiments in which selective CYP3A inducers (Clotrimazole, dexamethasone) were administered to rats over a period of several days, and the effect on liver/body weight ratios and on HDL-cholesterol/total cholesterol ratios determined. […] A positive relationship between cytochrome P450 induction and improvement of serum lipid levels was also found.

A further data set deals with HDL2. In words: HDL2/total cholesterol ratio after administration over several days. In kind it is in vivo. Conditions: pretreated rats; in words. The procedure: as §1
Data set [3] deals with CYP3A. The settings on record: rats; cited from earlier work.
The test system of data set [4] is CYP3A. The settings on record: human hepatocytes; cited from earlier work.
In data set [5] the test system is CYP3A. In words: CYP3A induction measured as increase in rate of ethosuximide clearance after 8-day pretreatment. In kind it is in vivo, rats. The settings on record: for increase in ethosuximide clearance: 8-day pretreatment, rats; for CYP3A activity induced compared with clotrimazole (Compound (III)): measured by ethosuximide clearance, in words. The procedure:
FIG. 1 represents a fold increase in ethosuxinide clearances following an 8-day pretreatment schedule of the azoles;
Using clotrimazole (Compound (III)) as a lead compound, the effect of structure on the ability of a compound to induce CYP3A activity was determined, as measured by the test compound's ability to increase the rate of ethosuximide clearance. Over 40 structural modifications of clotrimazole were tested and significant differences in the ability to induce CYP3A activity was observed.
Analysis of the effect of substitution on the ability of a compound to induce CYP3A activity enables us to propose requirements for the induction in vivo. First, a heteroaromatic nucleus containing basic nitrogen must be present. Significant activity (i.e. >2 fold increase in ethosuximide clearance) is achieved only using substituted imidazoles, 2-methylimidazole (XIV), or in one case, pyridine (XVI). […] A variety of substituents were introduced into a single aryl ring of triphenylmethylimidazole. Most of the monosubstituted 1-triphenylmethylimidazoles produced inducing activity lower than that measured for the unsubstituted member of the series, regardless of the nature of the substituent. High magnitude CYP3A induction (i.e. >3-fold increase in ethosuximide clearance was found in only four substituted triphenylmethyl imidazoles: (XXXI)(meta-chloro). (XXXIII)(para chloro), (XXXVIII)(metafluoro).

For data set [6], the system named is HDL-cholesterol. Conditions: epileptic subjects vs matched patients without epilepsy; phenobarbital and/or phenytoin; cited from earlier work.
Another data set relates to HDL cholesterol. Conditions: prospective experiments; cited from earlier work.
The subject of data set [7] is HDL-cholesterol. Conditions: rats; cited from earlier work.
The subject of a further data set is apoA1. The settings on record: rats; cited from earlier work.
The subject of the next data set is cytochromes P450. The settings on record: cited from earlier work.

Read-outs that look alike come from different tables or passages of the source. Where only a bound is given, the exact number is not on record here.

As to `Clc1ccccc1C(c1ccccc1)(c1ccccc1)n1ccnc1` [III], the “effect on HDL-cholesterol” value in the data set on HDL-cholesterol [1] is listed as “significant effect on HDL-cholesterol”. Further, in data set [2], the liver/body weight ratio result is “markedly increased liver/body weight ratios”. The HDL2/total cholesterol ratio entry in the data set with HDL2 was “noteworthy improvement in HDL2/total cholesterol ratios”. Further, the “inducer of CYP3A” value with CYP3A [3] and in the data set on CYP3A [4] was “relatively selective inducer” each time.
As to `c1ccc(Cc2ccncc2)cc1` [XVI], the “increase in ethosuximide clearance” value with CYP3A [5] is > 2 fold.
With `Fc1ccc(C(c2ccccc2)(c2ccccc2)n2ccnc2)cc1` [XXXIX], the “CYP3A activity induced compared with clotrimazole (Compound (III))” value in the data set with CYP3A [5] is “significantly more CYP3A activity than did the lead compound”.
With `C[C@@H]1C[C@H]2[C@@H]3CCC4=CC(=O)C=C[C@]4(C)[C@@]3(F)[C@@H](O)C[C@]2(C)[C@@]1(O)C(=O)CO` [dexamethasone], in data set [2], the liver/body weight ratio result was “markedly increased liver/body weight ratios”. Further, in the data set on HDL2, the HDL2/total cholesterol ratio entry was “noteworthy improvement in HDL2/total cholesterol ratios”.
As to `O=C1NC(=O)C(c2ccccc2)(c2ccccc2)N1` [phenytoin], the “levels of HDL-cholesterol” value in the data set on HDL-cholesterol [6] is “higher levels of HDL-cholesterol”.
Turning to `c1ccc(C(c2ccccc2)(c2ccccc2)n2ccnc2)cc1` [V, 1-triphenylmethylimidazole], the “CYP3A activity induced compared with clotrimazole (Compound (III))” value in the data set with CYP3A [5] is recorded as “significantly more CYP3A activity than did the lead compound”.
Turning to `Fc1cccc(C(c2ccccc2)(c2ccccc2)n2ccnc2)c1` [XXXVIII], in the data set with CYP3A [5], the “increase in ethosuximide clearance” value was > 3 fold and the “CYP3A activity induced compared with clotrimazole (Compound (III))” value is “significantly more CYP3A activity than did the lead compound”.
`c1ccc(C(c2ccccc2)n2ccnc2)cc1` [XIII, 1-diphenylmethylimidazole]: the CYP3A inducing activity result in the data set with CYP3A [5] (structure-activity statement in words, ethosuximide clearance) is “progressively lost”.
As to `CCC1(c2ccccc2)C(=O)NC(=O)NC1=O` [phenobarbital], the “levels of HDL-cholesterol” value in the data set with HDL-cholesterol [6] was “higher levels of HDL-cholesterol”. In addition, the “total serum HDL cholesterol/total cholesterol ratio” value in the data set on HDL cholesterol is reported as “increases in total serum HDL cholesterol/total cholesterol ratios”. Moreover, the HDL-cholesterol entry with HDL-cholesterol [7] is “increase HDL-cholesterol”. Further, in the data set with apoA1, the apoA1 result was “increase HDL-cholesterol and apoA1 in rats”. Further, the “inducer of the cytochromes P450” value in the data set on cytochromes P450 is “known to be an inducer of the cytochromes P450”.
Regarding `Clc1cccc(C(c2ccccc2)(c2ccccc2)n2ccnc2)c1` [XXXI], in the data set with CYP3A [5], the “increase in ethosuximide clearance” value is listed as > 3 fold and the “CYP3A activity induced compared with clotrimazole (Compound (III))” value was “significantly more CYP3A activity than did the lead compound”.
Consider `Cc1nccn1C(c1ccccc1)(c1ccccc1)c1ccccc1` [XIV], for which the “increase in ethosuximide clearance” value with CYP3A [5] is on record as > 2 fold.
Regarding `Clc1ccc(C(c2ccccc2)(c2ccccc2)n2ccnc2)cc1` [XXXIII], in the data set on CYP3A [5], the “increase in ethosuximide clearance” value is on record as > 3 fold and the “CYP3A activity induced compared with clotrimazole (Compound (III))” value is given as “significantly more CYP3A activity than did the lead compound”.
